According to patent publication US20100286264A1, “COMPOSITION COMPRISING A NITROOXYDERIVATIVE OF ACETAMINOPHEN AND A ANTICONVULSANT DRUG FOR THE TREATMENT OF NEUROPATHIC PAIN” (Nicox S.A., priority 2008, published 2010):

Test system: spinal cord neuronal responses from adult male Wistar rats with mononeuropathy
Assay: Recording of single motor units: nociceptive responses in rats with mononeuropathy (partial sciatic nerve ligation)
Format: in vivo, rat
Conditions: for Nociceptive responses to noxious mechanical stimulation: i.v., ± S.E.M.
Method: The application routes were intravenous (i.v.). The enhancement of the antinociception was studied by isobolographic analysis. Mononeuropathy was induced under anesthetic regime, seven days before the experiment, using the partial ligation of the sciatic nerve technique. The development of hyperalgesia was assessed by behavioral experiments, studying withdrawal reflex responses evoked by mechanical and thermal stimulation.

SMILES	Nociceptive responses to noxious mechanical stimulation (compound 1 15 μmol/kg alone (gabapentin 0))	Nociceptive responses to noxious mechanical stimulation (compound 1 30 μmol/kg alone (gabapentin 0))	Nociceptive responses to noxious mechanical stimulation (compound 1 60 μmol/kg alone (gabapentin 0))	Nociceptive responses to noxious mechanical stimulation (compound 1 120 μmol/kg alone (gabapentin 0))	Nociceptive responses to noxious mechanical stimulation (compound 1 240 μmol/kg alone (gabapentin 0))	Effect on nociceptive responses evoked by noxious mechanical and electrical stimulation (intravenous, mechanical and electrical stimulation)	ID50 for noxious mechanical stimulation (intravenous, rats with mononeuropathy, noxious mechanical stimulation) [µmol/kg]	Nociceptive responses to noxious mechanical stimulation (gabapentin 20 μmol/kg alone)	Nociceptive responses to noxious mechanical stimulation (gabapentin 40 μmol/kg alone)	Nociceptive responses to noxious mechanical stimulation (gabapentin 80 μmol/kg alone)	Nociceptive responses to noxious mechanical stimulation (gabapentin 160 μmol/kg alone)	Nociceptive responses to noxious mechanical stimulation (gabapentin 320 μmol/kg alone)
CC(=O)Nc1ccc(OC(=O)CCCO[N+](=O)[O-])cc1 [Compound 1, 4-(nitrooxy)butanoic acid 4-(N-acetylamino)phenyl ester]	98 ± 6 percentage of vehicle values	95 ± 2 percentage of vehicle values	91 ± 4.5 percentage of vehicle values	86 ± 5 percentage of vehicle values	75 ± 9 percentage of vehicle values	dose-dependently reduced the nociceptive responses	542 ± 5	–	–	–	–	–
NCC1(CC(=O)O)CCCCC1 [Gabapentin, reference compound]	–	–	–	–	–	–	–	100 ± 5 percentage of vehicle values	95 ± 1 percentage of vehicle values	95 ± 2 percentage of vehicle values	79 ± 3 percentage of vehicle values	59 ± 6 percentage of vehicle values
